Where two headings read alike, the source gives them in different places.
Columns and labels:
[1] = system: Beet Armyworm (Spodoptera exigua, LAPHEG); assay: Bioassays on Beet Armyworm (BAW), 128-well diet tray assay; format: in vivo; conditions: Spodoptera exigua; for mortality at 50 µg/cm2: 168 h, second instar larvae, 50 μg/cm^2 of test molecule on artificial diet, 25° C., five to seven days, average of eight wells, read-out: BAW % Control (or Mortality) rating
Procedure, shortened: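 Diet-overlay assay: 50 μg/cm^2 compound applied in 90:10 acetone-water to artificial diet, allowed to dry, then infested with 1–5 L2 larvae/well; 8 wells/compound; covered, vented; 25° C., 14:10 L:D, 5–7 d; % mortality per well, averaged.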

[2] = system: Cabbage Looper (Trichoplusia ni, TRIPNI); assay: Bioassays on Cabbage Looper (CL), 128-well diet tray assay; format: in vivo; conditions: Trichoplusia ni; for mortality at 50 µg/cm2: 168 h, second instar larvae, 50 μg/cm^2 of test molecule on artificial diet, 25° C., five to seven days, average of eight wells, read-out: CL % Control (or Mortality) rating
Procedure, shortened: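 One to five second-instar larvae per well on artificial diet surface-treated with 50 μg/cm^2 test molecule (applied in 90:10 acetone-water, dried). Held 5–7 days at 25° C, 14:10 light-dark; percent mortality recorded per well and averaged over eight wells.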

[3] = Beet Armyworm, rating class, read-out: BAW
[4] = Cabbage Looper, rating class, read-out: CL
[5] = Beet Armyworm, Table ABC / ABC-DP rating, read-out: BAW rating
[6] = Cabbage Looper, Table ABC / ABC-DP rating, read-out: CL rating
[7] = Table ABC: Biological Results, species BAW, read-out: BAW
[8] = Table ABC: Biological Results, species CL, read-out: CL

CC(=O)Nc1cc(NC(=O)c2cc(NC(=O)[C@H]3[C@H](c4ccc(F)c(C(F)(F)F)c4)C3(Cl)Cl)cc(C)c2Cl)c(F)cc1F [F1548, N-(5-Acetamido-2,4-difluorophenyl)-2-chloro-5-((1R,3R)-2,2-dichloro-3-(4-fluoro-3-(trifluoromethyl)phenyl)cyclopropane-1-carboxamido)-3-methylbenzamide]
pest or weed control at 50 µg/cm2 [1, 3]: 50 to 100% | pest or weed control at 50 µg/cm2 [2, 4]: 50 to 100%

Nc1c(F)cc(NC(=O)c2cc(NC(=O)[C@H]3[C@H](c4ccc(Cl)c(Cl)c4)C3(Cl)Cl)ccc2Cl)cc1F (relative stereo) [DP3, trans-N-(4-Amino-3,5-difluorophenyl)-2-chloro-5-(2,2-dichloro-3-(3,4-dichlorophenyl)cyclopropane-1-carboxamido)benzamide]
mortality at 50 µg/cm2 [1]: 50 to 100% | pest or weed control at 50 µg/cm2 [1, 5]: 50 to 100% | mortality at 50 µg/cm2 [2]: 50 to 100% | pest or weed control at 50 µg/cm2 [2, 6]: 50 to 100%

O=C(Nc1cc(NC(=O)C(F)(F)F)c(F)cc1F)c1cc(NC(=O)[C@H]2[C@H](c3cc(Cl)c(Cl)c(Cl)c3)C2(Cl)Cl)ccc1Cl [F1519, 2-Chloro-5-((1R,3R)-2,2-dichloro-3-(3,4,5-trichlorophenyl)cyclopropane-1-carboxamido)-N-(2,4-difluoro-5-(2,2,2-trifluoroacetamido)phenyl)benzamide]
pest or weed control at 50 µg/cm2 [1, 3]: 50 to 100% | pest or weed control at 50 µg/cm2 [2, 4]: 50 to 100%

CC(=O)Nc1c(Cl)ccc(NC(=O)c2cc(NC(=O)[C@H]3[C@H](c4ccc(F)c(C(F)(F)F)c4)C3(Cl)Cl)ccc2Cl)c1Cl [F1412, N-(3-Acetamido-2,4-dichlorophenyl)-2-chloro-5-((1R,3R)-2,2-dichloro-3-(4-fluoro-3-(trifluoromethyl)phenyl)cyclopropane-1-carboxamido)benzamide]
pest or weed control at 50 µg/cm2 [1, 3]: 50 to 100% | pest or weed control at 50 µg/cm2 [2, 4]: 50 to 100%

O=C(Nc1ccc(F)c(NC(=O)C(F)F)c1F)c1cc(NC(=O)[C@H]2[C@H](c3ccc(Cl)c(Cl)c3)C2(Cl)Cl)ccc1F [F1491, 5-((1R,3R)-2,2-Dichloro-3-(3,4-dichlorophenyl)cyclopropane-1-carboxamido)-N-(3-(2,2-difluoroacetamido)-2,4-difluorophenyl)-2-fluorobenzamide]
pest or weed control at 50 µg/cm2 [1, 3]: 50 to 100% | pest or weed control at 50 µg/cm2 [2, 4]: 50 to 100%

O=C(CC(C(F)(F)F)C(F)(F)F)Nc1c(F)ccc(NC(=O)c2cc(NC(=O)[C@H]3[C@H](c4ccc(F)c(C(F)(F)F)c4)C3(Cl)Cl)ccc2Cl)c1F [F1833, 2-Chloro-5-((1R,3R)-2,2-dichloro-3-(4-fluoro-3-(trifluoromethyl)phenyl)cyclopropane-1-carboxamido)-N-(2,4-difluoro-3-(4,4,4-trifluoro-3-(trifluoromethyl)butanamido)phenyl)benzamide]
pest or weed control at 50 µg/cm2 [1, 5]: 50 to 100% | pest or weed control at 50 µg/cm2 [2, 6]: 50 to 100%

O=C(Nc1ccc(F)c(NS(=O)(=O)CCC(F)(F)F)c1F)c1cc(NC(=O)[C@H]2[C@H](c3ccc(F)c(C(F)(F)F)c3)C2(Cl)Cl)ccc1Cl [F1350, 2-Chloro-5-((1R,3R)-2,2-dichloro-3-(4-fluoro-3-(trifluoromethyl)phenyl)cyclopropane-1-carboxamido)-N-(2,4-difluoro-3-((3,3,3-trifluoropropyl)sulfonamido)phenyl)benzamide]
pest or weed control at 50 µg/cm2 [1, 7]: 50 to 100% | pest or weed control at 50 µg/cm2 [2, 8]: 50 to 100%

CC(=O)Nc1c(F)ccc(NC(=O)c2cc(NC(=O)[C@H]3[C@H](c4cc(Cl)c(Cl)c(Cl)c4)C3(Cl)Cl)cc(F)c2Cl)c1F [F1504, N-(3-Acetamido-2,4-difluorophenyl)-2-chloro-5-((1R,3R)-2,2-dichloro-3-(3,4,5-trichlorophenyl)cyclopropane-1-carboxamido)-3-fluorobenzamide]
pest or weed control at 50 µg/cm2 [1, 3]: 50 to 100% | pest or weed control at 50 µg/cm2 [2, 4]: 50 to 100%

O=C(Nc1ccc(F)c(NC(=O)C2CCCO2)c1F)c1cc(NC(=O)[C@H]2[C@H](c3cccc(C(F)(F)F)c3)C2(Cl)Cl)ccc1Cl (stereo partly drawn) [F1676, N-(3-(2-Chloro-5-((1R,3R)-2,2-dichloro-3-(3-(trifluoromethyl)phenyl)cyclopropane-1-carboxamido)benzamido)-2,6-difluorophenyl)tetrahydrofuran-2-carboxamide]
pest or weed control at 50 µg/cm2 [1, 3]: 50 to 100% | pest or weed control at 50 µg/cm2 [2, 4]: 50 to 100%

O=C(Nc1ccc(F)cc1NC(=O)C(F)F)c1cc(NC(=O)[C@H]2[C@H](c3ccc(Cl)c(Cl)c3)C2(Cl)Cl)ccc1Cl (relative stereo) [F1123, trans-2-Chloro-5-(2,2-dichloro-3-(3,4-dichlorophenyl)cyclopropane-1-carboxamido)-N-(2-(2,2-difluoroacetamido)-4-fluorophenyl)benzamide]
pest or weed control at 50 µg/cm2 [1, 7]: 50 to 100% | pest or weed control at 50 µg/cm2 [2, 8]: 50 to 100%

CC(=O)Nc1cc(NC(=O)c2cc(NC(=O)[C@H]3[C@H](c4cc(Cl)cc(Cl)c4)C3(Cl)Cl)ccc2Cl)ccc1F (relative stereo) [F1638, trans-N-(3-Acetamido-4-fluorophenyl)-2-chloro-5-(2,2-dichloro-3-(3,5-dichlorophenyl)cyclopropane-1-carboxamido)benzamide]
pest or weed control at 50 µg/cm2 [1, 3]: 50 to 100% | pest or weed control at 50 µg/cm2 [2, 4]: 50 to 100%

Cc1cc(NC(=O)[C@H]2[C@H](c3ccc(F)c(C(F)(F)F)c3)C2(Cl)Cl)cc(C(=O)Nc2cc(NC(=O)C(F)F)c(F)cc2F)c1Cl [F1500, 2-Chloro-5-((1R,3R)-2,2-dichloro-3-(4-fluoro-3-(trifluoromethyl)phenyl)cyclopropane-1-carboxamido)-N-(5-(2,2-difluoroacetamido)-2,4-difluorophenyl)-3-methylbenzamide]
pest or weed control at 50 µg/cm2 [1, 3]: 50 to 100% | pest or weed control at 50 µg/cm2 [2, 4]: 50 to 100%

Nc1c(F)ccc(NC(=O)c2cc(NC(=O)[C@H]3[C@H](c4cc(Cl)c(Cl)c(Cl)c4)C3(Cl)Cl)cc(F)c2Cl)c1F [F1325, N-(3-Amino-2,4-difluorophenyl)-2-chloro-5-((1R,3R)-2,2-dichloro-3-(3,4,5-trichlorophenyl)cyclopropane-1-carboxamido)-3-fluorobenzamide]
pest or weed control at 50 µg/cm2 [1, 7]: 50 to 100% | pest or weed control at 50 µg/cm2 [2, 8]: 50 to 100%

O=C(NNc1ccc(Cl)c(C(F)(F)F)c1)c1cc(NC(=O)[C@H]2[C@H](c3cc(Cl)cc(Cl)c3)C2(Cl)Cl)ccc1Cl (relative stereo) [F2501, trans-2,2-dichloro-N-(4-chloro-3-(2-(4-chloro-3-(trifluoromethyl)phenyl)hydrazine-1-carbonyl)phenyl)-3-(3,5-dichlorophenyl)cyclopropane-1-carboxamide]
pest or weed control at 50 µg/cm2 [1, 5]: 50 to 100% | pest or weed control at 50 µg/cm2 [2, 6]: 50 to 100%

O=C(Nc1c(F)ccc(NC(=O)C(F)F)c1F)c1cc(NC(=O)[C@H]2[C@H](c3ccc(F)c(C(F)(F)F)c3)C2(Cl)Cl)cc(F)c1Cl [F1347, 2-Chloro-5-((1R,3R)-2,2-dichloro-3-(4-fluoro-3-(trifluoromethyl)phenyl)cyclopropane-1-carboxamido)-N-(3-(2,2-difluoroacetamido)-2,6-difluorophenyl)-3-fluorobenzamide]
pest or weed control at 50 µg/cm2 [1, 7]: 50 to 100% | pest or weed control at 50 µg/cm2 [2, 8]: 50 to 100%

CC(=O)Nc1cc(F)ccc1NC(=O)c1cc(NC(=O)[C@H]2[C@H](c3ccc(Cl)c(Cl)c3)C2(Cl)Cl)ccc1Cl (relative stereo) [F1125, trans-N-(2-Acetamido-4-fluorophenyl)-2-chloro-5-(2,2-dichloro-3-(3,4-dichlorophenyl)cyclopropane-1-carboxamido)benzamide]
pest or weed control at 50 µg/cm2 [1, 7]: 50 to 100% | pest or weed control at 50 µg/cm2 [2, 8]: 50 to 100%

CC(=O)Nc1cc(NC(=O)c2cc(NC(=O)[C@H]3[C@H](c4cc(Cl)c(Cl)c(Cl)c4)C3(Cl)Cl)cc(F)c2F)c(F)cc1F [F1581, N-(5-Acetamido-2,4-difluorophenyl)-5-((1R,3R)-2,2-dichloro-3-(3,4,5-trichlorophenyl)cyclopropane-1-carboxamido)-2,3-difluorobenzamide]
pest or weed control at 50 µg/cm2 [1, 3]: 50 to 100% | pest or weed control at 50 µg/cm2 [2, 4]: 50 to 100%

O=C(NCC(F)(F)F)c1cc(NC(=O)[C@H]2[C@H](c3ccc(F)c(F)c3)C2(Cl)Cl)ccc1Cl [F2099, 2-Chloro-5-((1R,3R)-2,2-dichloro-3-(3,4-difluorophenyl)cyclopropane-1-carboxamido)-N-(2,2,2-trifluoroethyl)benzamide]
pest or weed control at 50 µg/cm2 [1, 5]: 50 to 100% | pest or weed control at 50 µg/cm2 [2, 6]: 50 to 100%

O=C(NNc1ccccc1C(F)(F)F)c1cc(NC(=O)[C@H]2[C@H](c3cc(Cl)cc(Cl)c3)C2(Cl)Cl)ccc1Cl (relative stereo) [F2573, trans-2,2-Dichloro-N-(4-chloro-3-(2-(2-(trifluoromethyl)phenyl)hydrazine-1-carbonyl)phenyl)-3-(3,5-dichlorophenyl)cyclopropane-1-carboxamide]
mortality at 50 µg/cm2 [1]: 50 to 100% | pest or weed control at 50 µg/cm2 [1, 5]: 50 to 100% | mortality at 50 µg/cm2 [2]: 50 to 100% | pest or weed control at 50 µg/cm2 [2, 6]: 50 to 100%

O=C1CC(C(=O)Nc2c(F)ccc(NC(=O)c3cc(NC(=O)[C@H]4[C@H](c5cc(Cl)c(Cl)c(Cl)c5)C4(Cl)Cl)ccc3Cl)c2F)C1 [F1649, 2-Chloro-5-((1R,3R)-2,2-dichloro-3-(3,4,5-trichlorophenyl)cyclopropane-1-carboxamido)-N-(2,4-difluoro-3-(3-oxocyclobutane-1-carboxamido)phenyl)benzamide]
pest or weed control at 50 µg/cm2 [1, 3]: 50 to 100% | pest or weed control at 50 µg/cm2 [2, 4]: 50 to 100%

Reference: patent US20250228239A1, “MOLECULES HAVING PESTICIDAL UTILITY, AND INTERMEDIATES, COMPOSITIONS, AND PROCESSES, RELATED THERETO” (priority 2024, published 2025)
